Key:
Type in all cases: biochemical
CYP3A1/2 = tested on: T1, CYP3A1/2; test: probe substrate conversion in rat liver microsomes, HPLC-MS/MS; details: testosterone at about Km, NADPH regeneration system, 0.05 M Tris-HCl pH 7.4, 30 min; read-out: IC 50 / Positive control
T1 construct: native enzymes in rat liver microsomes; testosterone 6beta-hydroxylation read-out
Excerpt: probe substrate conversion in rat liver microsomes, HPLC-MS/MS on CYP3A1/2

CYP2B1 [1] = biological target: T2, CYP2B1 (Rattus norvegicus, UniProt P00176); test: Michaelis-Menten fit in rat liver microsomes, HPLC-fluorescence of resorufin; details: NADPH regeneration system, 0.05 M Tris-HCl pH 7.4, 15 min, 5 μM α-BNF added to block CYP1A1/2
T2 construct: native enzyme in rat liver microsomes; benzyloxyresorufin O-dealkylation (BROD) read-out
T2 sequence (P00176 1-491): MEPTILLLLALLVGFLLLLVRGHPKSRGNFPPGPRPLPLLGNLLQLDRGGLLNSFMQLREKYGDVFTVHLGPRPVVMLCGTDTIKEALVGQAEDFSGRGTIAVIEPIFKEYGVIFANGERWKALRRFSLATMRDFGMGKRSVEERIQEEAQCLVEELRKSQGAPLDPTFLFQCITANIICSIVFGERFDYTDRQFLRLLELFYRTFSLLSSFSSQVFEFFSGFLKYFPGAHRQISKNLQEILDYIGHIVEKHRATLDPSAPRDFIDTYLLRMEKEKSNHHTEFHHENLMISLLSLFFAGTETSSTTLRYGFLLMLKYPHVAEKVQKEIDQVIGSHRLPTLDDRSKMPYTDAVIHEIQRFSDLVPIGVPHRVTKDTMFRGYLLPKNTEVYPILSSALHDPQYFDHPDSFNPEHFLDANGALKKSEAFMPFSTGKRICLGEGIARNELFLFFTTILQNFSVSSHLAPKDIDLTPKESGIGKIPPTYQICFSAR

CYP2B1 [2] = biological target: T2, CYP2B1; test: probe substrate conversion in rat liver microsomes, HPLC-fluorescence; details: benzyloxyresorufin at about Km, 5 μM α-BNF added to block CYP1A1/2, NADPH regeneration system, 0.05 M Tris-HCl pH 7.4, 15 min; read-out: IC 50 / Positive control
Excerpt: probe substrate conversion in rat liver microsomes, HPLC-fluorescence on CYP2B1

CYP2D2 = biological target: T3, CYP2D2 (Rattus norvegicus, UniProt P10634); test: Michaelis-Menten fit in rat liver microsomes, HPLC-fluorescence of dextrorphan; details: NADPH regeneration system, 0.05 M Tris-HCl pH 7.4, 30 min
T3 construct: gene Cyp2d26; native enzyme in rat liver microsomes; dextromethorphan to dextrorphan read-out
T3 sequence (P10634 1-500): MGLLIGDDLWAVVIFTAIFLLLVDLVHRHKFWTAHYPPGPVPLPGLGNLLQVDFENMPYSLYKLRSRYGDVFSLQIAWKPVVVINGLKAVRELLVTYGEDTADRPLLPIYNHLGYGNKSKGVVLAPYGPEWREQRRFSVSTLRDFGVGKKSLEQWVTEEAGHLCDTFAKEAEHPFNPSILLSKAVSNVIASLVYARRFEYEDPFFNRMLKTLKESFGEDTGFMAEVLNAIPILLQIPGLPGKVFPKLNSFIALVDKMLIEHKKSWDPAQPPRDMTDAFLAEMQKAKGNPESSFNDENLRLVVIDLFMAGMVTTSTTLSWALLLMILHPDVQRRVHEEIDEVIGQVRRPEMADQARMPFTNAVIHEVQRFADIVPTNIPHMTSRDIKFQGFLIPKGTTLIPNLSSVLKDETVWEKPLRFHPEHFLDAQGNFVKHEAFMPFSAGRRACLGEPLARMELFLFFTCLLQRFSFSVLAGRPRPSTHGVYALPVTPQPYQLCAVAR

CYP1A1/2 = tested on: T4, CYP1A1/2; test: probe substrate conversion in rat liver microsomes, HPLC-fluorescence; details: ethoxyresorufin at about Km, NADPH regeneration system, 0.05 M Tris-HCl pH 7.4, 15 min; read-out: IC 50 / Positive control
T4 construct: native enzymes in rat liver microsomes; ethoxyresorufin O-deethylation (EROD) read-out
Excerpt: probe substrate conversion in rat liver microsomes, HPLC-fluorescence on CYP1A1/2

Question: For `CC(=O)N1CCN(c2ccc(OCC3COC(Cn4ccnc4)(c4ccc(Cl)cc4Cl)O3)cc2)CC1` (centres unmarked) [KCZ], which IC50 (CYP3A1/2) is on record?
Answer: The IC50 was 0.47 µM.

Question: With `O=c1ccc2nc3ccc(OCc4ccccc4)cc3oc-2c1` [BR] as the compound, how does the Km (CYP2B1 [1]) read?
Answer: The Km was “(B) benzyloxyresorufin (BR) (CYP2B1)”.

Question: `CC(C)(C(=O)c1cccnc1)c1cccnc1` [MTY] was tested. Which IC50 (CYP2B1 [2]) did it give?
Answer: Its IC50 is 4.31 µM.

Question: With `COc1ccc2c(c1)[C@]13CCCC[C@@H]1[C@H](C2)N(C)CC3` [DOM] as the compound, how does the Km (CYP2D2) read?
Answer: The Km was “(D) dextromethorphan (DOM) (CYP2D2)”.

Question: With `O=c1cc(-c2ccccc2)oc2c1ccc1ccccc12` [α-BNF] as the compound, how does the IC50 (CYP1A1/2) read?
Answer: The IC50 was 1.82 µM.
